Measured values as given in PMC6364417, “Kinase inhibitor library screening identifies synergistic drug combinations effective in sensitive and resistant melanoma cells” (Journal of Experimental & Clinical Cancer Research : CR, 2019).
“And” between values parts separate entries of the source, which are not always exact repeats. Equal entries are not always repeated. Where two headings read alike, the source gives them in different places.

Key:
Experiment in all cases: Kinase inhibitor library screening, PrestoBlue cell viability, 1 or 10 μM, 72 h
[1] = test system: A375-XP cells (Vemurafenib-resistant)
[2] = test system: A375-GP cells (Dabrafenib-resistant)
501Mel cells (parental) = details: for Cell viability in kinase inhibitor library screening, 501Mel Parental, 1μΜ / Cell viability in kinase inhibitor library screening, 501Mel Parental, 10μΜ: in %
How it was run: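 Readout: PrestoBlue signal on a monochromator plate reader, given as percent viability relative to untreated controls. Parental and drug-resistant (Vemurafenib XP, Dabrafenib GP) sublines were tested; at least duplicates per line.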

[3] = test system: 501Mel-GP cells (Dabrafenib-resistant); details: for Cell viability in kinase inhibitor library screening, 501Mel GP, 1μΜ / Cell viability in kinase inhibitor library screening, 501Mel GP, 10μΜ: in %
IGR37 cells (parental) = details: for Cell viability in kinase inhibitor library screening, IGR37 Parental, 1μΜ / Cell viability in kinase inhibitor library screening, IGR37 Parental, 10μΜ: in %
[4] = test system: IGR37-XP cells (Vemurafenib-resistant); details: for Cell viability in kinase inhibitor library screening, IGR37 XP, 1μΜ: in %
[5] = test system: IGR37-GP cells (Dabrafenib-resistant); details: for Cell viability in kinase inhibitor library screening, IGR37 GP, 1μΜ: in %
A375 cells (parental) = test system: A375 cells (parental)
[6] = test system: 501Mel-XP cells (Vemurafenib-resistant); details: for Cell viability in kinase inhibitor library screening, 501Mel XP, 1μΜ / Cell viability in kinase inhibitor library screening, 501Mel XP, 10μΜ: in %

Compound | Cell viability in kinase inhibitor library screening, A375 XP, 1μΜ ([1]; A375 XP, 1μΜ, 72 h) | Cell viability in kinase inhibitor library screening, A375 XP, 10μΜ ([1]; A375 XP, 10μΜ, 72 h) | Cell viability in kinase inhibitor library screening, A375 GP, 1μΜ ([2]; A375 GP, 1μΜ, 72 h) | Cell viability in kinase inhibitor library screening, A375 GP, 10μΜ ([2]; A375 GP, 10μΜ, 72 h) | Cell viability in kinase inhibitor library screening, 501Mel Parental, 1μΜ (501Mel cells (parental); 501Mel Parental, 1μΜ, 72 h) | Cell viability in kinase inhibitor library screening, 501Mel Parental, 10μΜ (501Mel cells (parental); 501Mel Parental, 10μΜ, 72 h) | Cell viability in kinase inhibitor library screening, 501Mel GP, 1μΜ ([3]; 501Mel GP, 1μΜ, 72 h) | Cell viability in kinase inhibitor library screening, 501Mel GP, 10μΜ ([3]; 501Mel GP, 10μΜ, 72 h) | Cell viability in kinase inhibitor library screening, IGR37 Parental, 1μΜ (IGR37 cells (parental); IGR37 Parental, 1μΜ, 72 h) | Cell viability in kinase inhibitor library screening, IGR37 Parental, 10μΜ (IGR37 cells (parental); IGR37 Parental, 10μΜ, 72 h) | Cell viability in kinase inhibitor library screening, IGR37 XP, 10μΜ ([4]; IGR37 XP, 10μΜ, 72 h) [%] | Cell viability in kinase inhibitor library screening, IGR37 XP, 1μΜ ([4]; IGR37 XP, 1μΜ, 72 h) | Cell viability in kinase inhibitor library screening, IGR37 GP, 10μΜ ([5]; IGR37 GP, 10μΜ, 72 h) [%] | Cell viability in kinase inhibitor library screening, IGR37 GP, 1μΜ ([5]; IGR37 GP, 1μΜ, 72 h) | Cell viability in kinase inhibitor library screening, A375 Parental, 10μΜ (A375 cells (parental); A375 Parental, 10μΜ, 72 h) | Cell viability in kinase inhibitor library screening, A375 Parental, 1μΜ (A375 cells (parental); A375 Parental, 1μΜ, 72 h) | Cell viability in kinase inhibitor library screening, 501Mel XP, 1μΜ ([6]; 501Mel XP, 1μΜ, 72 h) | Cell viability in kinase inhibitor library screening, 501Mel XP, 10μΜ ([6]; 501Mel XP, 10μΜ, 72 h) | also measured
CO[C@H]1C[C@@H]2CC[C@@H](C)[C@@](O)(O2)C(=O)C(=O)N2CCCC[C@H]2C(=O)O[C@H]([C@H](C)C[C@@H]2CC[C@@H](O)[C@H](OC)C2)CC(=O)[C@H](C)/C=C(\C)[C@@H](O)[C@@H](OC)C(=O)[C@H](C)C[C@H](C)/C=C/C=C/C=C/1C [Rapamycin (Sirolimus)] | 79.4 | 83.3 | 80.8 | 79.4 | 84.7 | 77.5 | 69.9 | 59.4 | 79.9 | 81.5 | 49.9 | 96.0 | 76.7 | 92.2 | 72.3 | 80.2 | 56.7 | 42.7 | –
CNC(=O)c1cc(Oc2ccc(NC(=O)Nc3ccc(Cl)c(C(F)(F)F)c3)c(F)c2)ccn1 [Regorafenib (BAY 73-4506)] | – | – | – | – | – | – | – | – | – | – | – | – | – | – | – | – | – | – | cell viability (kinase inhibitor library screening) ([1]; A375 XP, 1μΜ, 72 h): 58.9%; cell viability (kinase inhibitor library screening) ([1]; A375 XP, 10μΜ, 72 h): 18.1%; cell viability (kinase inhibitor library screening) ([2]; A375 GP, 1μΜ, 72 h): 48.9%; cell viability (kinase inhibitor library screening) ([2]; A375 GP, 10μΜ, 72 h): 22.9%; cell viability (kinase inhibitor library screening) (501Mel cells (parental); 501Mel Parental, 1μΜ, 72 h): 93.5%; cell viability (kinase inhibitor library screening) (501Mel cells (parental); 501Mel Parental, 10μΜ, 72 h): 53.2%; cell viability (kinase inhibitor library screening) ([3]; 501Mel GP, 1μΜ, 72 h): 96.7%; cell viability (kinase inhibitor library screening) ([3]; 501Mel GP, 10μΜ, 72 h): 48.3%; cell viability (kinase inhibitor library screening) (IGR37 cells (parental); IGR37 Parental, 1μΜ, 72 h): 94.8%; cell viability (kinase inhibitor library screening) (IGR37 cells (parental); IGR37 Parental, 10μΜ, 72 h): 42.7%; cell viability (kinase inhibitor library screening) ([4]; IGR37 XP, 1μΜ, 72 h): 88.9%; cell viability (kinase inhibitor library screening) ([4]; IGR37 XP, 10μΜ, 72 h): 14.8%; cell viability (kinase inhibitor library screening) ([5]; IGR37 GP, 1μΜ, 72 h): 89.9%; cell viability (kinase inhibitor library screening) ([5]; IGR37 GP, 10μΜ, 72 h): 47.7%; cell viability (kinase inhibitor library screening) (A375 cells (parental); A375 Parental, 10μΜ, 72 h): 32.8%; cell viability (kinase inhibitor library screening) (A375 cells (parental); A375 Parental, 1μΜ, 72 h): 96.5%; cell viability (kinase inhibitor library screening) ([6]; 501Mel XP, 1μΜ, 72 h): 93.6%; cell viability (kinase inhibitor library screening) ([6]; 501Mel XP, 10μΜ, 72 h): 47.1%
COc1cc(OC)c(/C=C/S(=O)(=O)Cc2ccc(OC)c(NCC(=O)O)c2)c(OC)c1 [Rigosertib (ON-01910)] | 18.3 | 9.8 | 19.7 | 16.9 | 20.3 | 26.0 | 16.6 | 20.3 | 11.0 | 15.4 | 35.5 | 55.9 | 61.1 | 62.5 | 15.2 | 18.2 | 9.5 | 14.7 | –
CC[C@H](CO)Nc1nc(NCc2ccccc2)c2ncn(C(C)C)c2n1 [Roscovitine (Seliciclib, CYC202)] | – | – | – | – | – | – | – | – | – | – | – | – | – | – | – | – | – | – | cell viability (kinase inhibitor library screening) [1]: 109.6% and 86.5%; cell viability (kinase inhibitor library screening) [2]: 109.1% and 86.5%; cell viability (kinase inhibitor library screening) (501Mel cells (parental)): 95.0% and 93.4%; cell viability (kinase inhibitor library screening) [3]: 85.2%; cell viability (kinase inhibitor library screening) (IGR37 cells (parental)): 85.4% and 104.3%; cell viability (kinase inhibitor library screening) [4]: 96.5% and 59.2%; cell viability (kinase inhibitor library screening) [5]: 93.8% and 90.7%; cell viability (kinase inhibitor library screening) (A375 cells (parental)): 90.5%; cell viability (kinase inhibitor library screening) [6]: 93.6% and 61.7%
